# Measurements published in US20070099867A1, “Pharmaceutical agent containing hyaluronan as an active ingredient” (GLYCOSCIENCE LABORATORIES, INC., priority 2005, published 2007).
# Assays:
# K562 [1] = assay: DNA chip expression analysis of cytokine-associated and chemokine-associated genes (Example 4); type: cell-based, human; conditions: K562, 42° C. 20 minutes then 37° C. 30 minutes, HA4 10 ng/ml
# Experimental: In this example, the cytokine-associated gene and chemokine-associated gene expression inhibition of a pharmaceutical agent according to the invention was assessed using a DNA chip capable of monitoring a gene expression promotion/inhibition.
# Experimental method: First, the K562 was incubated in Groups 1 and 2 in the RPMI medium described above. The both groups were incubated at 42° C. for 20 minutes followed by 37° C. for 30 minutes. The medium of Group 2 was supplemented with HA4 (10 ng/ml).
# (§1) After the incubation, the medium was removed by centrifugation at 1000 rpm. The obtained cells were stored in a deep freezer at −60° C. From the cells thus stored, RNA was extracted according to a standard method. The extracted RNA was subjected to the DNA chip to analyze the gene expression. The DNA chip gene expression analysis was subtracted to DNA CHIP Research Inc. Specifically, the trade name: AceGene Human Oligo Chip 30K 1 Chip Version manufactured by DNA CHIP Research Inc. was employed.
# [2] = tested on: U937 cell (human monocyte line); assay: IL-6 production by LPS-stimulated U937 cells, ELISA; type: cell-based; conditions: U937, LPS 100 ng/ml, HA4 100 ng/ml, 24 hours
# Experimental: (§2) An U937 cell was disseminated in a 2 ml aliquot in a 6-well microplate at 5×10^5 cell/ml, supplemented with an LPS at a final concentration of 100 or 1000 ng/ml, and then incubated for 24 hours with 5% CO2 at 37° C. in the presence or absence of HA4 (100 ng/ml). The culture supernatant was centrifuged at 3000 rpm for 5 minutes to obtain a test substance. A 1 ml aliquot of the recovered supernatant was subjected to Human Cytokine Antibody array (Raybio) using an ELISA (ENDOGEN) to detect the production of various cytokines.
# (§3) More specifically, the following procedure was employed to measure the production of the cytokines by the cytokine array and the ELISA.
# To a microplate, 50 μl of a biotinylated antibody solution and 50 μl of the culture supernatant were added, and allowed to stand at room temperature for 2 hours. After washing with a washing buffer three times, 100 μl of a streptoavidin-HRP solution was added, allowed to stand at room temperature for 30 minutes, and washed with the washing buffer three times. A TMB was added, allowed to stand for at room temperature 30 minutes, and then a quencher was added to stop the reaction and the absorbance at 450 nm was measured (reference: 562 nm). The IL-6 concentration (pg/ml) was calculated based on the standard solutions measured in parallel.
# [3] = tested on: cerebrospinal tissue of multiple sclerosis model (EAE); assay: DNA array analysis of cerebrospinal tissue of the EAE model; type: in vivo, Lewis rats; conditions: EAE rats
# rat spinal injury model = assay: Rat spinal injury model, immunostaining of spinal tissue with anti-Hsp72 and anti-synaptophysin antibody; type: in vivo, Wistar rat; conditions: Group 3: continuous intrathecal HA4 6 μg/day, 7 days; compared with Sham-operation (Group 1) and saline (Group 2)
# Experimental: In this example, a rat spinal injury model was treated continuously with a physiological saline (saline group) or a physiological saline containing HA4 (HA4 group) followed by sampling the spinal tissue, which was then immunostained with an anti-Hsp72 antibody and/or an anti-synaptophysin antibody. Also in this example, a rat which had been subjected to a Sham-operation was handled as an intact control (Sham-operation group).
# The rat spinal injury model was prepared by subjecting a Wistar rat (11-week old when receiving, 12-week old when using) to the procedure described below. First, a cervical to lumbar region of a test rat was clipped using an electric clipper under an anesthesia with pentobarbital and then the clipped region was cleaned with a 70% alcohol and ISOGIN. Then, the dorsal skin was excised to expose the 5th to 10th thoracic vertebrae and then the 6th thoracic vertebra was subjected to a semi-laminectomy. Then a dura was incised slightly and then under an anesthesia with xylocaine, the tip (fabricated to be 0.3 mm) of a microforceps was introduced over the width of the spinal posterior funiculus (about 1.5 mm) until the tip of the microforceps was brought into contact with the abdominal side vertebral body, and the microforceps were moved for 10 seconds to effect a debridement of the spinal cord (hereinafter referred to as a primary injury site). […]
# [4] = tested on: experimental autoimmune encephalomyelitis (EAE) multiple sclerosis model animals; assay: Experimental autoimmune encephalomyelitis (EAE) multiple sclerosis model, EAE neural symptom evaluation; type: in vivo, Lewis rats; conditions: for EAE clinical score at the EAE climax: Day 13 after antigen inoculation, saline 2.2±0.41; for diseased period: saline 6.5±0.55 days
# [5] = tested on: U937 cell (human monocyte line); assay: Cytokine production by LPS-stimulated U937 cells, Human Cytokine Antibody array; type: cell-based; conditions: U937, LPS 100 ng/ml, HA4 100 ng/ml, 24 hours
# Experimental: as §2, §3
# A 2 ml aliquot of a blocking buffer was added to a membrane blotted with an antibody, which was then shaken for 30 minutes. The blocking buffer was removed, and a 1 ml aliquot of the culture supernatant was added and shaken at room temperature for 2 hours, washed 5 times, and then admixed with a primary antibody solution. After agitating at room temperature for 1.5 hours followed by washing 5 times, a secondary antibody solution was added and agitated overnight at 4° C. After washing 5 times, a chemiluminescence was allowed to develop and photographed by a Polaroid. The photograph was scanned to obtain its digital data which were subjected to an Image J to measure the luminescent intensity. The ratio based on the luminescent intensity of an internal standard placed in 6 positions in the membrane was calculated. In addition, a relative level (%) based on the expression level in a non-treatment group (NT) being 100 was calculated.
# [6] = tested on: K562 (human erythroleukemia cell); assay: Cell viability by Rhodamine 123 staining after heat treatment; type: cell-based; conditions: K562, 20 minutes at 43° C. then 60 minutes at 37° C., HA4 100 ng/ml
# Experimental: In this example, effect of the inventive pharmaceutical agent on cell viability was measured using Rhodamine 123. […] Accordingly, the degree of the staining with Rhodamine 123 serves as an index of the mitochondrial activity, thus the index of the cellular activity (see, non-patent reference 2).
# In this example, a K562 (referred to as human erythroleukemia cell or human erythroblastoid leukemia cell) was used. The K562 was purchased from RIKEN, Japan.
# In this example relating to preparation of test substance, HA4 was prepared at 100 ng/ml. Specifically, HA4 was prepared by the method of Tawada et al. (Tawada A, Masa T, Oonuki Y, Watanabe A, Matsuzaki Y, Asari A. Large-scale preparation, purification and characterization of hyaluronan oligosaccharides from 4-mers to 52-mers. Glycobiology, 2002; 12(7): 421-6) and the concentration was adjusted using a physiological saline.
# First, the K562 was incubated under the condition described below. The culture medium for the K562 was an RPMI-1640 medium. In this example, the K562 was incubated in Groups 1 to 3 shown below. Each group was cultured under the condition described below. […]
# The K562 after washing was inoculated at 1×10^4 cells/ml in a 96-well plate and a photograph was taken using a fluorescent microscope (Nikon). The image was sent to an Adobe Photoshop (Adobe Systems) where the fluorescent intensity of a cell was measured.
# K562 [7] = assay: DNA chip gene expression analysis of cell viability genes (Example 3); type: cell-based, human; conditions: K562, 42° C. 20 minutes then 37° C. 30 minutes, HA4 10 ng/ml
# Experimental: In this example, the cell viability enhancement of a pharmaceutical agent according to the invention was assessed using a DNA chip capable of monitoring a gene expression promotion/inhibition.
# First, the K562 was incubated in Groups 1 and 2 in the […] described above. The both groups were incubated at 42° C. for 20 minutes followed by 37° C. for 30 minutes. The medium of Group 2 was supplemented with HA4 (10 ng/ml).
# as §1, with “analyze” for “analyze the”, “expressions.” for “expression.”
# [8] = intrathecal continuous 6 μg/day from antigen inoculation, Day 14, pooled cerebrospinal tissue
# [9] = intraspinal single administration after onset of disease, 60 μg
structure (smiles),measurement,setting,value
"CC(=O)N[C@H]1[C@H](O[C@H]2[C@H](O)[C@@H](O)[C@H](O[C@H]3[C@H](O)[C@@H](CO)OC(O)[C@@H]3NC(C)=O)O[C@@H]2C(=O)O)O[C@H](CO)[C@@H](O)[C@@H]1O[C@@H]1O[C@H](C(=O)O)[C@@H](O)[C@H](O)[C@H]1O (some centres unmarked) [HA4, tetrasaccharide hyaluronan]","HA4(+)/HA4(−) ratio, CCL28 gene expression",K562 [1],0.32
same,"HA4(+)/HA4(−) ratio, IFN-γ gene expression",K562 [1],0.11
same,"HA4(+)/HA4(−) ratio, IFN-ω1 gene expression",K562 [1],0.5
same,"HA4(+)/HA4(−) ratio, IL-1β gene expression",K562 [1],0.36
same,"HA4(+)/HA4(−) ratio, IL-5 gene expression",K562 [1],0.28
same,"HA4(+)/HA4(−) ratio, IL-17b gene expression",K562 [1],0.31
same,"HA4(+)/HA4(−) ratio, IL-18RAP gene expression",K562 [1],0.32
same,"HA4(+)/HA4(−) ratio, Mig(CXCL9) gene expression",K562 [1],0.11
same,production of IL-6 (ELISA),[2],reduction
same,IL-6 mRNA expression in cerebrospinal tissue,"[3]; HA4 administered intrathecally after antigen inoculation, DNA array",increased
same,"Expression level ratio (HA/physiological saline), Decoy TRAIL receptor without death domain",[3]; [8],2.0
same,"Expression level ratio (HA/physiological saline), Fibroblast growth factor receptor substrate 2",[3]; [8],2.3
same,"Expression level ratio (HA/physiological saline), Transthyretin",[3]; [8],0.38
same,Hsp72 immunostaining at primary and secondary injury sites,rat spinal injury model,a further intense staining
same,synaptophysin immunostaining at primary and secondary injury sites,rat spinal injury model,an expression close to that observed in Group 1
same,EAE clinical score at the EAE climax,"[4]; intraspinal continuous administration after onset of disease, 6 μg/day, 11 days (therapeutic)",1.5±1.0
same,EAE clinical score at the EAE climax,"[4]; intraspinal continuous administration immediately after inoculation, 6 μg/day, 22 days (prophylactic), mean ± SD",0.2±0.41
same,EAE clinical score at the EAE climax,[4]; [9],1.8±0.5
same,diseased period,"[4]; intraspinal continuous administration after onset of disease, 6 μg/day, 11 days",4.3 ± 1.5 days
same,cases developing the disease,"[4]; intraspinal continuous administration immediately after inoculation, 6 μg/day, 22 days",⅙
same,diseased period,[4]; [9],5.0 ± 1.5 days
same,production of IL-1α (cytokine array),[5],reduction
same,production of IL-1β (cytokine array),[5],reduction
same,production of IL-6 (cytokine array),[5],reduction
same,production of TGF-β (cytokine array),[5],reduction
same,production of TNF-α (cytokine array),[5],reduction
same,production of TNF-β (cytokine array),[5],reduction
same,"Rhodamine 123 staining performance (fluorescent intensity, mitochondrial activity)",[6],inhibited such a reduction
same,"HAA+/− ratio, Caspase 2 gene expression",K562 [7]; apoptosis-related,0.27
same,"HAA+/− ratio, Granzyme H gene expression",K562 [7]; apoptosis-related,0.38
same,"HAA+/− ratio, STK17b (DARK2) gene expression",K562 [7]; apoptosis-related,0.09
same,"HAA+/− ratio, pawr (Par-4) gene expression",K562 [7]; apoptosis-related,0.45
same,"HAA+/− ratio, dnaj (hsp40) homolog gene expression",K562 [7]; heat shock protein-related,2.62
same,"HAA+/− ratio, DNAJ2 gene expression",K562 [7]; transcription control-related,0.34
same,"HAA+/− ratio, TAF9L gene expression",K562 [7]; transcription control-related,0.43
